Columns and labels:
hERG = target: T1, hERG (Homo sapiens, UniProt Q12809); test: voltage clamp currents in mammalian cells stably transfected with cloned ion channel cDNA, hERG; format: cell-based
T1 construct: expressed in transfected cells
Excerpt: (§1) Nonlinear least squares fits of the current ratio data yielded the best fit value for the IC50 concentration. A positive control was included for each channel tested in the study.

hNav1.5 = hNav1.5 (Homo sapiens, UniProt Q14524); test: voltage clamp currents in mammalian cells stably transfected with cloned ion channel cDNA, hNav1.5; format: cell-based
Excerpt: as §1

hCav3.2 = hCav3.2 (Homo sapiens, UniProt O95180); test: cell-based
Excerpt: as §1

hCav1.2 = hCav1.2 (Homo sapiens, UniProt Q13936); test: voltage clamp currents in mammalian cells stably transfected with cloned ion channel cDNA, hCav1.2; format: cell-based
Excerpt: as §1

hKv4.3 = target: T2, hKv4.3 (Homo sapiens, UniProt Q9UK17); test: voltage clamp currents in mammalian cells stably transfected with cloned ion channel cDNA, hKv4.3; format: cell-based
T2 construct: expressed in transfected cells
T2 sequence (Q9UK17 1-655): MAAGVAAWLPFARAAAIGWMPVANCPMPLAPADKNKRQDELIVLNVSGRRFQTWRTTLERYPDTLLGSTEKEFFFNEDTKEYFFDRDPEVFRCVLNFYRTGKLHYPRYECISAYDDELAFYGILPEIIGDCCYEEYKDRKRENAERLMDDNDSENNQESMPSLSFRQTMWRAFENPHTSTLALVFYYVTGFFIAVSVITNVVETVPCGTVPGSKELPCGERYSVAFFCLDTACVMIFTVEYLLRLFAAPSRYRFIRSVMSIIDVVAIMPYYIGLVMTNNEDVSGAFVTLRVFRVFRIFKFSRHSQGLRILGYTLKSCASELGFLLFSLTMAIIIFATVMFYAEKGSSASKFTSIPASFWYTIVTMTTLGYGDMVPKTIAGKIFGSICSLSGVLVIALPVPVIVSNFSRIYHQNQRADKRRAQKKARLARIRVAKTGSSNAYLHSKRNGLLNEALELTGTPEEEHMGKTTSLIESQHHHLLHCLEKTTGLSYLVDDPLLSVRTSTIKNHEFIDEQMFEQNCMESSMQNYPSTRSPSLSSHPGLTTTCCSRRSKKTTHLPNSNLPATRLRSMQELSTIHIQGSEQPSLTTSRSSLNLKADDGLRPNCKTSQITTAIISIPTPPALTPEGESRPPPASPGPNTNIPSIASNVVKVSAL
Excerpt: as §1

hHCN4 = target: T3, hHCN4 (Homo sapiens, UniProt Q9Y3Q4); test: voltage clamp currents in mammalian cells stably transfected with cloned ion channel cDNA, hHCN4; format: cell-based
T3 construct: expressed in transfected cells
T3 sequence (Q9Y3Q4 1-1203): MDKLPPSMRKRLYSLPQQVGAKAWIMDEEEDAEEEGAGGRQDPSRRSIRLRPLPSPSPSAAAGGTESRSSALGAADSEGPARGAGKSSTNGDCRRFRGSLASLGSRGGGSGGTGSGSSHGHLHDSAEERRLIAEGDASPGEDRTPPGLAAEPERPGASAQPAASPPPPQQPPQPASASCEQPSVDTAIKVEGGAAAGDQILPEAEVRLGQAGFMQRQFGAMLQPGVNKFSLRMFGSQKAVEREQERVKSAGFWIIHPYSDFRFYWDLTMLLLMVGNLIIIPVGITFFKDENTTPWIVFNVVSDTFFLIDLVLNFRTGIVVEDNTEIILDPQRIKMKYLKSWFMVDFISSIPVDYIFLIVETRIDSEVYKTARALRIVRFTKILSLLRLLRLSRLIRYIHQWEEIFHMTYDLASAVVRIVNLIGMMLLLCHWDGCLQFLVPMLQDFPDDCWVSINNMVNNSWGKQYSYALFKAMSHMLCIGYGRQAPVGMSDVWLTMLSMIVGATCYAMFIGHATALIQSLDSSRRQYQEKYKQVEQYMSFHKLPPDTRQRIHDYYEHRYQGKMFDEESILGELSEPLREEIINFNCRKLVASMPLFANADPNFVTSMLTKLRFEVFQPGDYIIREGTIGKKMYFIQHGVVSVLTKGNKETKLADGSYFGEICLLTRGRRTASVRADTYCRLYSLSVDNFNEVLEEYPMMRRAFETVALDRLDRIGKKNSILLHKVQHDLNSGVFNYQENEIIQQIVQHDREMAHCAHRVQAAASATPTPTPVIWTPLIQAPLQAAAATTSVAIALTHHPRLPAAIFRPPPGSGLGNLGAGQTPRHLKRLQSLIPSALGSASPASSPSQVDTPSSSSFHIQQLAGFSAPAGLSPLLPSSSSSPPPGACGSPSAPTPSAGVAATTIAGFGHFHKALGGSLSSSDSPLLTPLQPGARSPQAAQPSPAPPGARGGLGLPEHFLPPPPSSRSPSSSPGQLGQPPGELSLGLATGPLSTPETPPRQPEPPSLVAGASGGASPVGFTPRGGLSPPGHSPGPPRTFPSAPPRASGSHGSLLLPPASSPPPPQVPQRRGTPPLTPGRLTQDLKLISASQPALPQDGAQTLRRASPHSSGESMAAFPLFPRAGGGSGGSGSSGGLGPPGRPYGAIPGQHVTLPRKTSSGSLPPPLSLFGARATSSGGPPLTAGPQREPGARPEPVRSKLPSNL
Excerpt: as §1

hNav1.3 = target: T4, hNav1.3 (Homo sapiens, UniProt Q9NY46); test: voltage clamp currents in mammalian cells stably transfected with cloned ion channel cDNA, hNav1.3; format: cell-based
T4 construct: expressed in transfected cells
Excerpt: as §1

hKv1.1 = target: T5, hKv1.1 (Homo sapiens, UniProt Q09470); test: voltage clamp currents in mammalian cells stably transfected with cloned ion channel cDNA, hKv1.1; format: cell-based
T5 construct: expressed in transfected cells
Excerpt: as §1

hKv1.3 = hKv1.3 (Homo sapiens, UniProt P22001); test: voltage clamp currents in mammalian cells stably transfected with cloned ion channel cDNA, hKv1.3; format: cell-based
Excerpt: as §1

[1] = 0.1 Hz, read-out: Estimated IC50 at 0.1 Hz

Sequence of hNav1.5 (Q14524 whole entry): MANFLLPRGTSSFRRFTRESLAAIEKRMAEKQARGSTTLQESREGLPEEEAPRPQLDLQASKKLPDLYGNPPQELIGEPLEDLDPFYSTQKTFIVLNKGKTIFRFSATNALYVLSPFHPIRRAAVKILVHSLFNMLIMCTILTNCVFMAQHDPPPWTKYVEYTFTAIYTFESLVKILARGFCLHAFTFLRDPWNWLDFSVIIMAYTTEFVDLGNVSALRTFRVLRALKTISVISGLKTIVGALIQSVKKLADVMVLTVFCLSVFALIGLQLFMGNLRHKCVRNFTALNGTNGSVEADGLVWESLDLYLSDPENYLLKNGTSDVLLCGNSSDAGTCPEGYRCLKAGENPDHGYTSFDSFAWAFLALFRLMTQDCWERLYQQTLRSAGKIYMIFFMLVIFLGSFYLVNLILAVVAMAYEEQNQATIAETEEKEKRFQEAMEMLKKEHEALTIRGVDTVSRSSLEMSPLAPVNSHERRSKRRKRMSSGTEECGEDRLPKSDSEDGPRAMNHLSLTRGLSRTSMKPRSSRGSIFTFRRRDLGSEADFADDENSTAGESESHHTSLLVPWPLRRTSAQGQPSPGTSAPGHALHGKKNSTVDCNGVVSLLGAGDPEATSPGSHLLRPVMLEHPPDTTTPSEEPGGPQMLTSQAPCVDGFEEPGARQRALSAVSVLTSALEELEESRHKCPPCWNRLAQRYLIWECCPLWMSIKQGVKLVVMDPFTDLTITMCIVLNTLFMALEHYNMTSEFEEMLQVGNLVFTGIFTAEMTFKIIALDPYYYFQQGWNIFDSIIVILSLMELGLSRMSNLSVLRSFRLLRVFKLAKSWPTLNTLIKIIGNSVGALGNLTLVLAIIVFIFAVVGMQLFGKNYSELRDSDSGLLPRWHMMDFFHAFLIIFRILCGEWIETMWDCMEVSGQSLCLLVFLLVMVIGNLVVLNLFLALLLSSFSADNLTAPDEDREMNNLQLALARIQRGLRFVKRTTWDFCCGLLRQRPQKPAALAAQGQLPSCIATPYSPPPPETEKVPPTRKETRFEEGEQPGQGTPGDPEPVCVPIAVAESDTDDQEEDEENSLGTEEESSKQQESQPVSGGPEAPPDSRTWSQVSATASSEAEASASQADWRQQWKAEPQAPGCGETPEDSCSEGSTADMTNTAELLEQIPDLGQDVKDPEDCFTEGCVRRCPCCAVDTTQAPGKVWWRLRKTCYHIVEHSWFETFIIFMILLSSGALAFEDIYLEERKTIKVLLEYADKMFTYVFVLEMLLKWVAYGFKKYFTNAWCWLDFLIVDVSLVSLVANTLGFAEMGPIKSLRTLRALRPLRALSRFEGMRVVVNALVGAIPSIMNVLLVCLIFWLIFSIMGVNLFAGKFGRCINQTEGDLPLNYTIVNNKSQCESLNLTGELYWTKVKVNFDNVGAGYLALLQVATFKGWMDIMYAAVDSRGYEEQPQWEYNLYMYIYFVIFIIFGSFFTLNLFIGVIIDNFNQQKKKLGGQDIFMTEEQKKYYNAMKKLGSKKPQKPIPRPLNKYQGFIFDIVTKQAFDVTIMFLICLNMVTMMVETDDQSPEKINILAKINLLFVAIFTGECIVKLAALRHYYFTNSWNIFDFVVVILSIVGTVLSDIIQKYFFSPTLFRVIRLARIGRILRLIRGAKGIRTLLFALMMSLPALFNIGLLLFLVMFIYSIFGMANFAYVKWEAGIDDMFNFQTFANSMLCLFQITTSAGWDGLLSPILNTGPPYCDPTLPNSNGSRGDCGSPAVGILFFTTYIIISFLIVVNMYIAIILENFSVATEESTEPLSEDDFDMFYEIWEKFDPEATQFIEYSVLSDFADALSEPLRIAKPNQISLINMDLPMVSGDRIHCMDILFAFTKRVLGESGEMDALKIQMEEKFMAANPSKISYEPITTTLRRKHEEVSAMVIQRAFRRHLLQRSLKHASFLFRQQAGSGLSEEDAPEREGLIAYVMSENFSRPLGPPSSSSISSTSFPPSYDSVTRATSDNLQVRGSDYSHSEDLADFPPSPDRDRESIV
Sequence of hCav3.2 (O95180 whole entry): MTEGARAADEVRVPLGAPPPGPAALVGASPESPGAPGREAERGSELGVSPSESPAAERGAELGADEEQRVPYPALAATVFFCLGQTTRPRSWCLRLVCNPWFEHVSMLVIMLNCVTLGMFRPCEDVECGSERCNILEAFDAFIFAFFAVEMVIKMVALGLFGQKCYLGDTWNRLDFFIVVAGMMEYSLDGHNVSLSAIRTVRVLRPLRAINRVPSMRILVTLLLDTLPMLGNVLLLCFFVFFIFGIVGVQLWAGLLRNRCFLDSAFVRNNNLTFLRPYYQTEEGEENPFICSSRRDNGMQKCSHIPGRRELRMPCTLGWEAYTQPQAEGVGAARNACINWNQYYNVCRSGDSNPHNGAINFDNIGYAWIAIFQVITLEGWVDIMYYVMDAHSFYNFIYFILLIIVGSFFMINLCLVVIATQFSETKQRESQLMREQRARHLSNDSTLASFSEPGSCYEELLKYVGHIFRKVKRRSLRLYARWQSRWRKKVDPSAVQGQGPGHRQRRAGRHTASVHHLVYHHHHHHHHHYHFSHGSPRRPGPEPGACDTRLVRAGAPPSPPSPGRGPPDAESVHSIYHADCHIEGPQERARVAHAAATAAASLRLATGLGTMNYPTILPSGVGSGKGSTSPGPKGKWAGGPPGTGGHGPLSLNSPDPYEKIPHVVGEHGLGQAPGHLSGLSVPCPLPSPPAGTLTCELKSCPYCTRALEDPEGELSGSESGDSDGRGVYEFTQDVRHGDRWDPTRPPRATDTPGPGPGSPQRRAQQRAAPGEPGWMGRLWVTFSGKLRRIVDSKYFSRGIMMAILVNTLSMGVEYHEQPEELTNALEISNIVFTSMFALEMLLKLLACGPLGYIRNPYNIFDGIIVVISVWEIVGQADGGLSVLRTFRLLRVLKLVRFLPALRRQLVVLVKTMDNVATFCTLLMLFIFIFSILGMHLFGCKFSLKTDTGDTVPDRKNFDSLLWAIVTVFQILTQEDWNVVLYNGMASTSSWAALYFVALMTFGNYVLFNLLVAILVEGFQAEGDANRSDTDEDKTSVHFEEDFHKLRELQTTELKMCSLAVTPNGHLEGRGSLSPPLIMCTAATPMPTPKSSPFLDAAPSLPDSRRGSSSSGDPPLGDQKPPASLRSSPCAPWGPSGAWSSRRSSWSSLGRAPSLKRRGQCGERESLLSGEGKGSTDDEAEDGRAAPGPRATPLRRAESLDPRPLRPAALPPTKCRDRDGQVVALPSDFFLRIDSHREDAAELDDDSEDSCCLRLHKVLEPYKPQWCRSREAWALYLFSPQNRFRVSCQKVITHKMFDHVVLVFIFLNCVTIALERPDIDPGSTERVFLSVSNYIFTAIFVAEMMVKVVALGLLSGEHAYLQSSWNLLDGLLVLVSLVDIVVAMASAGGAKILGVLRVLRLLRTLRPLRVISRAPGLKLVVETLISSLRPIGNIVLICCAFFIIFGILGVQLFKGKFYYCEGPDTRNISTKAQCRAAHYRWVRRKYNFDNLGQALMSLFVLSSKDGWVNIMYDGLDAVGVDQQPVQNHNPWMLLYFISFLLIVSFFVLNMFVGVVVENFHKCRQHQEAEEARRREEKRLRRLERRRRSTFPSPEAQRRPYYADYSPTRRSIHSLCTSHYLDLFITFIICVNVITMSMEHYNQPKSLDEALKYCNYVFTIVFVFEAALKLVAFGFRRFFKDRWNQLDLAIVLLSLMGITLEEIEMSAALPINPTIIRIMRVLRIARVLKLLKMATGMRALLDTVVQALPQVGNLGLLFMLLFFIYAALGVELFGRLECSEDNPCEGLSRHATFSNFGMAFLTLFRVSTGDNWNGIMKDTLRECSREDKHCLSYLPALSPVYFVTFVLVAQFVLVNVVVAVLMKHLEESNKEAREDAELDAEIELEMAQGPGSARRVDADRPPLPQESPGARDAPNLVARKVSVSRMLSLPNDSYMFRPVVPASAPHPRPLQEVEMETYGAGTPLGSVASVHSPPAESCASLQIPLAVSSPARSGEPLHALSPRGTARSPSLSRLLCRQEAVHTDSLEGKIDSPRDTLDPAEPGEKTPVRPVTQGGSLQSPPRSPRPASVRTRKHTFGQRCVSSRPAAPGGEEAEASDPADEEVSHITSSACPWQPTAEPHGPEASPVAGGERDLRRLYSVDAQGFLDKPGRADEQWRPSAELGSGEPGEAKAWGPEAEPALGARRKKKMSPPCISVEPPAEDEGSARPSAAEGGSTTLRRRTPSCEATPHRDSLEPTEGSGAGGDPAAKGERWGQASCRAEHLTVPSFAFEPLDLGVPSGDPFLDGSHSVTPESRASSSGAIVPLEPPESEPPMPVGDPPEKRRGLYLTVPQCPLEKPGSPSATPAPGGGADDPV
T5 sequence (Q09470 whole entry): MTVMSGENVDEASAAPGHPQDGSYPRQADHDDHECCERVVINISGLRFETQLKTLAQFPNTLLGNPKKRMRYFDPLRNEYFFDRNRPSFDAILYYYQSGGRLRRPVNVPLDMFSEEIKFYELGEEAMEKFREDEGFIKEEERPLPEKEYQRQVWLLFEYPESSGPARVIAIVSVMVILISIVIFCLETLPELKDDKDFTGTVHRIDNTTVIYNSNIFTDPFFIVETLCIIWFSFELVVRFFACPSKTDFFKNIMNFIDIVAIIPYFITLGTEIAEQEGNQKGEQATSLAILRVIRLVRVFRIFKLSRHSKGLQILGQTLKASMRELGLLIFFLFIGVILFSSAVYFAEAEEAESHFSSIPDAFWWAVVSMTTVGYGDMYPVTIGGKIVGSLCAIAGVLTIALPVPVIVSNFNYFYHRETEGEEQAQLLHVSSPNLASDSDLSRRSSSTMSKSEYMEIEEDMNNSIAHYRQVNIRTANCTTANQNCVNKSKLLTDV

## O=c1[nH]c2ccccc2n1CCCN1CCC(n2c(=O)[nH]c3cc(Cl)ccc32)CC1 [domperidone, 1,3-dihydro-5-chloro-1-(1-(3-(2,3-dihydro-2-oxo-1H-benzimidazol-1-yl)propyl)-4-piperidinyl)-2H-benzimidazol-2-one]
hERG; 1 μM, 3 Hz
  % Block at 1 μM/3 Hz: 98.0%
hERG; 10 μM, 0.1 Hz
  % Block at 10 μM/0.1 Hz: 95.5%
hNav1.5; 1 μM, 3 Hz
  % Block at 1 μM/3 Hz: 23.7%
hNav1.5; 10 μM, 0.1 Hz
  % Block at 10 μM/0.1 Hz: 37.3%
hCav3.2; Estimated IC50 at 0.1 Hz, 0.1 Hz
  IC50: 10.2 µM
hCav3.2; Estimated IC50 at 3 Hz, 3 Hz
  IC50: 1.22 µM
hCav1.2; 1 μM, 3 Hz
  % Block at 1 μM/3 Hz: 49.6%
hCav1.2; 10 μM, 0.1 Hz
  % Block at 10 μM/0.1 Hz: 9%
hKv4.3; 10 μM
  % Block at 10 μM/0.1 Hz: 0.5%
hKv4.3; [1]
  IC50: 1990 µM
hHCN4; 10 μM
  % Block at 10 μM/0.1 Hz: 20.3%
hHCN4; [1]
  IC50: 30.3 µM
hNav1.3; 10 μM
  % Block at 10 μM/0.1 Hz: 4.6%
hNav1.3; [1]
  IC50: 207 µM
hKv1.1; 10 μM
  % Block at 10 μM/0.1 Hz: 1.9%
hKv1.1; [1]
  IC50: 516 µM
hKv1.3; 10 μM
  % Block at 10 μM/0.1 Hz: 17.6%
hKv1.3; [1]
  IC50: 46.8 µM

— patent US20090143434A1 (priority 2007, published 2009)
